Data: ChEMBL document CHEMBL5634164, “Absolute Configuration of Oxabornyl Polyenes Prugosenes A1-A3 and Structural Revision of Prugosene A2” (J Nat Prod, 2024)

How the values were obtained:
[1] = system: Respiratory syncytial virus; assay: Antiviral activity against RSV A2 ATCC VR-1540 infected in HEp-2 cells assessed as inhibition of virus induced cytopathic effect measured after 72 hrs; format: functional, organism-based; settings: human respiratory syncytial virus, A2 ATCC VR-1540, HEp-2, 72 h
[2] = Cytotoxicity against HEp-2 cells; format: toxicity, cell-based; settings: human

CC1=C[C@](C)(O)[C@H](C)O[C@@H]1/C(C)=C/C=C/C=C/C=C/C=C/C1(C)C2OC(=O)C1(C)C(=O)C2C (stereo partly drawn)
IC50 [1]: 6.3 µM
CC50 [2]: > 100 µM

CC1=C[C@@](C)(O)[C@@H](/C(C)=C/C=C/C=C/C=C/C=C/C2(C)C3OC(=O)C2(C)C(=O)C3C)O[C@H]1C (stereo partly drawn)
IC50 [1]: 25 µM
CC50 [2]: > 100 µM

CC1=C[C@@](C)(O)[C@H](/C(C)=C/C=C/C=C/C=C/C=C/C2(C)C3OC(=O)C2(C)C(=O)C3C)O[C@H]1C (stereo partly drawn)
IC50 [1]: 12 µM
CC50 [2]: > 100 µM

NC(=O)c1ncn([C@@H]2O[C@H](CO)[C@@H](O)[C@H]2O)n1 [RIBAVIRIN]
IC50 [1]: 15 µM
CC50 [2]: > 100 µM
